# Assay results reported in patent publication US20110201603A1, “Novel Acylaminobenzamide Derivatives” (Bayer CropScience AG, priority 2008, published 2011).
# Tests used:
# Format in all cases: in vivo
# [1] = system: cucurbit leaf beetle (Aulacophora femoralis); test: Test against cucurbit leaf beetle (Aulacophora femoralis), leaf dip; settings: active compound concentration of 100 ppm; second-instar larvae on cucumber leaves; after 7 days
# Experimental: (§1) Unless not mentioned otherwise, the test solutions were prepared as follows:
# (§2) Containing as solvent: Dimethylformamide, 3 parts by weight; and as emulsifier: Polyoxyethylene alkyl phenyl ether, 1 part by weight
# (§3) To prepare the test solution, 1 part by weight of an active compound is mixed with the above-mentioned amount of solvent containing the above-mentioned amount of emulsifier, and the mixture is diluted with water to the desired concentration.
# Cucumber leaves were immersed in the test solution at the appropriate concentration, and the leaves were dried in air. The leaves were then placed in a plastic cup containing sterilized black soil, and five second-instar larvae of cucurbit leaf beetle were released therein. The plastic cup was placed in a temperature-controlled chamber at 25° C. After 7 days, the number of dead larvae was counted, and thus the insecticidal activity was calculated. An insecticidal activity of 100% means that all beetles were killed, whereas an insecticidal activity of 0% means that no beetle was killed.
# [2] = system: tobacco cutworm (Spodoptera litura) larvae; test: Test against tobacco cutworm (Spodoptera litura) larvae, leaf dip; settings: active compound concentration of 100 ppm; third-instar larvae on sweet potato leaves; after 7 days
# Experimental: as §1, §2, §3
# The leaves of sweet potato were immersed in the test solution at the appropriate concentration, and the leaves were dried in air. The leaves were then placed in a petri dish having a diameter of 9 cm, and ten third-instar larvae of tobacco cutworm were released therein. The petri dish was placed in a temperature-controlled chamber at 25° C. After 2 days and 4 days sweet potato leaves were additionally added. After 7 days, the number of dead larvae was counted to calculate the insecticidal activity. An insecticidal activity of 100% means that all larvae were killed, whereas an insecticidal activity of 0% means that no larva was killed. In the current test, the results of two petri dishes for each partition were averaged.
# [3] = system: two-spotted spider mite (Tetranychus urticae); test: Test against two-spotted spider mite (Tetranychus urticae), spray; settings: concentration of 100 ppm; adult mites on kidney beans; after 7 days
# Experimental: as §1, §2, §3
# 50 to 100 adult two-spotted spider mites were inoculated onto the leaves of kidney beans at the two-true leaf stage, which plant had been cultivated in a pot having a diameter of 6 cm. After one day, test solution at the appropriate concentration was sprayed thereon in a sufficient amount using a spray gun. After the spraying, the plant pot was placed inside a greenhouse, and after 7 days, the acaricidal activity was calculated. An acaricidal activity of 100% means that all mites were killed, whereas an acaricidal activity of 0% means that no mite was killed.
Structure (SMILES),insecticidal activity [1] [%],insecticidal activity [2] [%],acaricidal activity rate [3] [%]
CCOC(c1cc(I)c(NC(=O)c2cccc(NC(=O)c3ccc(F)cc3)c2)c(I)c1)(C(F)(F)F)C(F)(F)F [1-28],100,100,100
CCOC(c1cc(I)c(NC(=O)c2cccc(NC(=O)c3ccc(Cl)nc3Cl)c2)c(I)c1)(C(F)(F)F)C(F)(F)F [1-61],100,,100
CCCOC(c1cc(I)c(NC(=O)c2cccc(NC(=O)c3ccc(Cl)nc3Cl)c2)c(I)c1)(C(F)(F)F)C(F)(F)F [1-64],,,100
CCc1cc(C(OCC2CC2)(C(F)(F)F)C(F)(F)F)cc(C)c1NC(=O)c1cccc(NC(=O)c2cccnc2Cl)c1 [1-66],100,100,100
CCc1cc(C(Oc2ccc(Cl)cc2)(C(F)(F)F)C(F)(F)F)cc(C)c1NC(=O)c1cccc(NC(=O)c2cccnc2Cl)c1 [1-109],100,100,100
CCc1cc(C(Oc2ccnc(C(F)(F)C(F)(F)F)c2)(C(F)(F)F)C(F)(F)F)cc(C)c1NC(=O)c1cccc(NC(=O)c2cccnc2Cl)c1 [1-142],100,100,
CCc1cc(C(OCC(F)(F)F)(C(F)(F)F)C(F)(F)F)cc(C)c1NC(=O)c1cccc(NC(=O)c2cccnc2Cl)c1 [1-146],100,100,
CCc1cc(C(Oc2ccc(Cl)c(Cl)c2)(C(F)(F)F)C(F)(F)F)cc(C)c1NC(=O)c1cccc(NC(=O)c2cccnc2Cl)c1 [1-151],100,100,
CCc1cc(C(Oc2ccc(I)cc2)(C(F)(F)F)C(F)(F)F)cc(C)c1NC(=O)c1cccc(NC(=O)c2cccnc2Cl)c1 [1-152],100,100,
Cc1cc(C(Oc2ccc(Cl)cc2)(C(F)(F)F)C(F)(F)F)cc(C)c1NC(=O)c1cccc(NC(=O)c2cccnc2Cl)c1 [1-160],100,100,
Cc1cc(C(Oc2ccc(Br)cc2)(C(F)(F)F)C(F)(F)F)cc(C)c1NC(=O)c1cccc(NC(=O)c2cccnc2Cl)c1 [1-166],100,100,
CCc1cc(C(Oc2ccc(C#N)cc2)(C(F)(F)F)C(F)(F)F)cc(C)c1NC(=O)c1cccc(NC(=O)c2cccnc2Cl)c1 [1-168],100,100,
CCc1cc(C(Oc2cccnc2)(C(F)(F)F)C(F)(F)F)cc(C)c1NC(=O)c1cccc(NC(=O)c2cccnc2Cl)c1 [1-171],100,100,
CCc1cc(C(Oc2ccc(Cl)cn2)(C(F)(F)F)C(F)(F)F)cc(C)c1NC(=O)c1cccc(NC(=O)c2cccnc2Cl)c1 [1-173],100,100,
CCc1cc(C(Oc2ccc(Cl)cc2)(C(F)(F)F)C(F)(F)F)cc(CC)c1NC(=O)c1cccc(NC(=O)c2cccnc2Cl)c1 [1-176],100,100,
CCc1cc(C(Oc2ccc(Br)cc2)(C(F)(F)F)C(F)(F)F)cc(CC)c1NC(=O)c1cccc(NC(=O)c2cccnc2Cl)c1 [1-177],100,100,
Cc1cc(C(Oc2ccc(Cl)nc2)(C(F)(F)F)C(F)(F)F)cc(C)c1NC(=O)c1cccc(NC(=O)c2cccnc2Cl)c1 [1-182],100,100,
CCc1cc(C(n2cccc2)(C(F)(F)F)C(F)(F)F)cc(C)c1NC(=O)c1cccc(NC(=O)c2cccnc2Cl)c1 [2-1],100,100,100
Cc1cc(C(n2cccc2Br)(C(F)(F)F)C(F)(F)F)cc(C)c1NC(=O)c1cccc(NC(=O)c2cccnc2Cl)c1 [2-2],100,100,
Cc1cc(C(n2cc(Cl)cn2)(C(F)(F)F)C(F)(F)F)cc(Br)c1NC(=O)c1cccc(NC(=O)c2ccccc2F)c1 [2-31],100,100,
O=C(Nc1c(Cl)cc(C(n2cc(Cl)cn2)(C(F)(F)F)C(F)(F)F)cc1Cl)c1cccc(NC(=O)c2ccccc2F)c1 [2-32],100,100,

Structure (SMILES),insecticidal activity [1] [%],insecticidal activity [2] [%],acaricidal activity rate [3] [%]
O=C(Nc1c(Br)cc(C(n2cc(Cl)cn2)(C(F)(F)F)C(F)(F)F)cc1Br)c1cccc(NC(=O)c2ccccc2F)c1 [2-33],100,100,
O=C(Nc1c(I)cc(C(n2cc(Cl)cn2)(C(F)(F)F)C(F)(F)F)cc1I)c1cccc(NC(=O)c2ccccc2F)c1 [2-34],100,100,
Cc1cc(C(n2cc(Cl)cn2)(C(F)(F)F)C(F)(F)F)cc(Br)c1NC(=O)c1cccc(NC(=O)c2c(F)cccc2F)c1 [2-41],100,100,
CCc1cc(C(n2cc(Cl)cn2)(C(F)(F)F)C(F)(F)F)cc(C)c1NC(=O)c1cccc(NC(=O)c2cccnc2)c1 [2-42],,,100
CCc1cc(C(n2cc(Cl)cn2)(C(F)(F)F)C(F)(F)F)cc(C)c1NC(=O)c1cccc(NC(=O)c2cccnc2F)c1 [2-44],100,100,
Cc1cc(C(n2cc(Cl)cn2)(C(F)(F)F)C(F)(F)F)cc(Br)c1NC(=O)c1cccc(NC(=O)c2cccnc2Cl)c1 [2-59],100,100,
O=C(Nc1c(Cl)cc(C(n2cc(Cl)cn2)(C(F)(F)F)C(F)(F)F)cc1Cl)c1cccc(NC(=O)c2cccnc2Cl)c1 [2-61],100,100,
O=C(Nc1c(I)cc(C(n2cc(Cl)cn2)(C(F)(F)F)C(F)(F)F)cc1I)c1cccc(NC(=O)c2cccnc2Cl)c1 [2-63],100,100,
CCc1cc(C(n2cc(Br)cn2)(C(F)(F)F)C(F)(F)F)cc(C)c1NC(=O)c1cccc(NC(=O)c2cccnc2Cl)c1 [2-87],100,100,
"CCc1cc(C(n2cc(C(F)(F)F)cn2)(C(F)(F)F)C(F)(F)F)cc(C)c1NC(=O)c1cccc(NC(=O)c2cccnc2Cl)c1 [2-105, 2-chloro-N-{3-[(2-ethyl-4-{1,1,1,3,3,3-hexafluoro-2-[4-(trifluoromethyl)-1H-pyrazol-1-yl]propan-2-yl}-6-methylphenyl)carbamoyl]-phenyl}pyridine-3-carboxamide]",100,100,
Cc1cc(C(n2cc(I)c(I)n2)(C(F)(F)F)C(F)(F)F)cc(C)c1NC(=O)c1cccc(NC(=O)c2cccnc2Cl)c1 [2-116],100,100,
CCc1cc(C(n2nc(Br)c(Br)c2Br)(C(F)(F)F)C(F)(F)F)cc(C)c1NC(=O)c1cccc(NC(=O)c2cccnc2F)c1 [2-128],100,100,
Cc1cc(C(n2nc(Br)c(Br)c2Br)(C(F)(F)F)C(F)(F)F)cc(C)c1NC(=O)c1cccc(NC(=O)c2cccnc2Cl)c1 [2-133],100,100,
CCc1cc(C(n2nc(Br)c(Br)c2Br)(C(F)(F)F)C(F)(F)F)cc(C)c1NC(=O)c1cccc(NC(=O)c2cccnc2Cl)c1 [2-134],100,100,
Cc1cc(C(n2cnc(Cl)c2Cl)(C(F)(F)F)C(F)(F)F)cc(C)c1NC(=O)c1cccc(NC(=O)c2cccnc2Cl)c1 [2-143],100,100,
Cc1cc(C(n2c(Br)nc(Br)c2Br)(C(F)(F)F)C(F)(F)F)cc(C)c1NC(=O)c1cccc(NC(=O)c2cccnc2Cl)c1 [2-144],100,100,
Cc1cc(C(n2nccn2)(C(F)(F)F)C(F)(F)F)cc(C)c1NC(=O)c1cccc(NC(=O)c2cccnc2Cl)c1 [2-147],100,100,
Cc1cc(C(n2cnc(C(F)(F)F)n2)(C(F)(F)F)C(F)(F)F)cc(C)c1NC(=O)c1cccc(NC(=O)c2cccnc2Cl)c1 [2-153],100,100,
CCc1cc(C(N2CC=CCC2)(C(F)(F)F)C(F)(F)F)cc(C)c1NC(=O)c1cccc(NC(=O)c2cccnc2Cl)c1 [2-180],100,100,
CCc1cc(C(n2cnc(Cl)n2)(C(F)(F)F)C(F)(F)F)cc(C)c1NC(=O)c1cccc(NC(=O)c2cccnc2Cl)c1 [2-183],100,100,
